Measured values taken from patent publication US4302578A, “Cephalosporin antibiotics” (priority 1971, dated 1981).
Entries after “also recorded” stand apart in the source; their conditions may differ. Counter-ions that a name gives are not always drawn. Like-named read-outs stand apart in the source and are kept apart here.

Tests used:
Proteus morganii 356 [1] = test: mouse protection test, clinical isolate resistant to cephalosporins; assay type: in vivo, mice; conditions: Subcutaneous Route × 2 Doses (average of Two Trials)
From the text: (§1) The method employed in this characterization is as follows: Female white Swiss mice, average weight 20-23 grams, were infected intraperitoneally with 3-20 times the number of organisms calculated to be lethal for 50% of the infected control animals (3-20 LD50 doses). At the time of infection and again six hours later, therapy was given by the designated route. Controls of the virulence of the culture and the toxicity of the antibiotic for uninfected mice were included in the tests. Seven days after infection the test was considered complete and the amount of the antibiotic (I) that would be required to protect 50% of the infected and treated animals was calculated by the method of Knudsen and Curtis; J. Amer. Stat. Assoc. Vol. 42: page 282 (1947).
Administration was by subcutaneous injection. At the completion of the test period, usually seven days after administration, the amount of product required to protect 50% of the mice (ED50) from this otherwise fatal injection was calculated:
In addition to the aforementioned in vivo trails of the product, a clinical isolate of Proteus morganii 356 which is resistant to cephalosporins and capable of degrading cephalosporin C, was employed in a mouse protection test performed in the same manner as reported above.

[2] = system: Aerobacter cloacae (MB-2646); test: bacterial inactivation, cell-free extract; assay type: biochemical
Description: The ability of Antibiotic 810A and cephalosporin C to withstand the degradative effect of the culture Aerobacter cloacae (MB-2646) was also determined. This culture is gram-negative and resistant to cephalosporin C. […] The source of the inactivating substance is a 1:160 dilution of the filtrate of an 18 hour 37° C. shake culture of Aerobacter cloacae MB-2646 in nutrient broth containing 0.2% yeast extract. Table XIV, infra, indicates the percent inactivation of Antibiotic 810A, cephalothin, cephaloridine and cephalosporin C on Vibrio percolans (MB-1272) via this method:
Using the same assay procedure as described above, Table XV, infra, indicates the relative resistance of Antibiotic 810A to enzymatic inactivation by Aerobacter cloacae. The starting concentration is 250 μg./ml. Results are expressed in μg./ml.

[3] = system: gram-negative and gram-positive infections; test: in vivo protection against infection (summary statements); set-up: species or system mice; conditions: for protection: 4000 mg. × dose, subcutaneous, infection not marked; for protection against infections, oral: given orally; for in vivo protection / activity: mouse
From the text: as §1
The method employed in these studies is the same as described above with regard to the in vivo characterization of 810A.

Escherichia coli 236 = test: bacterial inactivation; conditions: four hours incubation; on B. subtilis (MB-964); 240 min
Description: (§2) These cultures are: Escherichia coli 236, Proteus morganii 251, Proteus morganii 356 and Proteus mirabilis 241. […] In conducting the assay individual mixtures of the organisms and one of the antibiotic were sampled after four hours incubation and assayed for residual antibiotic activity. The procedure is the same assay method as described above against Alcaligenes faecalis MB-9 and A. viscosus MB-12.

Proteus morganii 356 [4] = test: bacterial inactivation
Description: as §2

Proteus morganii 251 = test: bacterial inactivation
Description: as §2

Proteus mirabilis 241 = test: bacterial inactivation
Description: as §2

[5] = system: gram-negative and gram-positive bacteria; test: in vitro antibacterial activity (summary statements); assay type: cell-based
certain microorganisms = test: resistance to bacterial inactivation / enzymatic degradation (summary statements); assay type: biochemical
From the text: Bacterial Inactivation With 810A: An in vitro study was designed to determine the resistance of Antibiotic 810A, to bacterial inactivation as compared with cephalosporin C, cephaloridine and cephalothin.

[6] = urinary excretion and blood levels; assay type: in vivo, mice; conditions: mouse
[7] = system: Alcaligenes faecalis (MB-9); test: bacterial inactivation, washed bacterial cells
[8] = isoelectric point and pH stability; assay type: physicochemical; conditions: for stability, low pH: pH 1.5
Vibrio percolans MB-1272 = test: disc-plate bioassay; conditions: for zone of inhibition at 100 µg/mL / zone of inhibition at 5 µg/mL: Comamonas terrigena
[9] = system: Salmonella gallinarum MB-1287; test: disc-plate bioassay of derivatives; assay type: cell-based; conditions: 100γ/ml (Example 77)
From the text: (§3) Bioassay: The disc zone sizes in the following table are expressed in mm. for equal concentrations of antibiotic.

[10] = system: Pseudomonas stutzeri MB-1231; test: disc-plate bioassay of derivatives; assay type: cell-based; conditions: Stutzerimonas stutzeri, MB1231, equal concentrations, 100γ/ml (Example 71); read-out: disc zone size
From the text: (§4) Bioassay: The disc zone sizes in the following table are expressed in mm. for 100 γ/ml of antibiotic.
as §3

Escherichia coli W-MB-60 = test: disc-plate bioassay of derivatives; assay type: cell-based; conditions: 100 γ/ml (Example 78)
From the text: as §4, §3

[11] = toxicity for uninfected mice; conditions: mouse, in vivo
From the text: as §1

cephalosporinases = test: resistance to cephalosporinases / penicillinase; assay type: biochemical
penicillinase = conditions: cited from earlier work
[12] = system: gram-negative and gram-positive bacteria; conditions: cited from earlier work
[13] = 2 Hour Incubation, assayed on V. percolans (MB-1272) plates
[14] = four hours incubation, on B. subtilis (MB-964), 240 min

Compound: O=C(Cc1cccs1)N[C@@H]1C(=O)N2C(C(=O)[O-])=C(C[n+]3ccccc3)CS[C@H]12 [Cephaloridine]
- ED50 (Proteus morganii 356 [1]): 9,270 μg
- Percent Inactivation After Incubation With Cell-Free Extract ([2]; aerobacter cloacae cell-free extract, 2 h): 96%
- protection [3]: failed to protect at 4000 mg. × dose

Compound: CO[C@@]1(NC(=O)CCC[C@@H](N)C(=O)O)C(=O)N2C(C(=O)O)=C(COC(N)=O)CS[C@@H]21 [Example 842A]
- percent inactivation (Escherichia coli 236): 38%
- percent inactivation (Proteus morganii 356 [4]; bacterial cells, 4 h): 69%
- percent inactivation (Proteus morganii 251; bacterial cells, 4 h): 80%
- percent inactivation (Proteus mirabilis 241; bacterial cells, 4 h): 5%
- antibacterial activity [5]: exhibits activity against Salmonella schottmuelleri 3010, S. gallinarum and S. typhosa
- bactericidal action / development of resistance [5]: resistance to it develops slowly and it is bactericidal
- antibacterial activity ([5]; listed as Antibiotic 842A): inhibits the growth of the following gram-negative bacteria: Escherichia coli, Proteus vulgaris, Alcaligenes faecalis, Brucella bronchiseptica, Salmonella gallinarum, Vibrio percolans and Xanthomonas vesicatoria; also recorded: inhibits the growth of the following gram-positive bacteria: Staphylococcus aureus, Sarcina lutea and Bacillus subtilis; also recorded: enhanced activity against gram-negative microorganisms
- resistance to inactivation / enzymatic degradation (certain microorganisms): more resistant to enzymatic degradation than cephalosporin C
- resistance to inactivation / enzymatic degradation (certain microorganisms; listed as Antibiotic 842A): more stable than the latter against certain microorganisms; also recorded: more resistant than cephalosporin C to inactivation by A. faecalis, A. viscosus, Escherichia coli 236, Proteus morganii 251, Proteus morganii 236 and Proteus mirabilis 241
- blood levels / excretion ([6]; in vivo): produces rapid blood levels; also recorded: rapidly excreted in the urine
- dose excreted at 6 h ([6]; urine, within six hours after administration, read-out: eliminated in the urine): ~100%
- Percent Inactivation After Incubation With Washed Bacterial Cells ([7]; 4 Hour Incubation, assayed on B. subtilis (MB-964) plates): 0%
- stability, high pH [8]: unstable above pH 7
- stability, high pH ([8]; listed as Antibiotic 842A): unstable above pH 9.0
- stability, low pH [8]: stable at pH 1.5
- stability, low pH ([8]; listed as Antibiotic 842A): relatively stable at pH 1.5
- protection against infections, oral [3]: protects against infections due to Paracolobactrum arizoniae 3270, Proteus vulgaris 1810, and Salmonella schottmuelleri 3010
- in vivo protection / activity ([3]; listed as Antibiotic 842A): protects against infection with three species of Proteus, two of Salmonella, one strain of Escherichia coli, two of Klebsiella and also against Paracolobactrum arizoniae, Aerobacter aerogenes, Pasteurella multocida and Diplococcus pneumoniae E400; also recorded: exhibits a significant in vivo gram-negative effect with a potency which, in general, is greater than cephalothin

Compound: CO[C@@]1(NC(=O)CCC[C@@H](N)C(=O)O)C(=O)N2C(C(=O)O)=C(COC(N)=O)CS[C@@H]21 [Disodium Salt of 842A]
- zone of inhibition at 100 µg/mL (Vibrio percolans MB-1272; MB1272, read-out: disc zone size, 100γ/ml (Example 77)): > 35 mm
- zone of inhibition at 100 µg/mL (Vibrio percolans MB-1272; MB1272, read-out: disc zone size, 100 γ/ml (Example 78)): 23 mm
- zone of inhibition at 5 µg/mL (Vibrio percolans MB-1272; MB1272, read-out: disc zone size, Example 70, (5γ/ml) printed at end of line, head 100γ/ml): 18 mm
- zone of inhibition at 5 µg/mL (Vibrio percolans MB-1272; MB1272, read-out: disc zone size, equal concentrations, 5γ/ml (Example 71)): 18 mm
- disc zone size [9]: 27 mm
- zone of inhibition at 100 µg/mL [10]: 21 mm
- disc zone size (Escherichia coli W-MB-60): 18 mm

Compound: CC(=O)OCC1=C(C(=O)O)N2C(=O)[C@@H](NC(=O)Cc3cccs3)[C@H]2SC1 [Cephalothin]
- ED50 (Proteus morganii 356 [1]): 20,000 μg
- Percent Inactivation After Incubation With Cell-Free Extract [2, 13]: 66%
- protection [3]: failed to protect at 4000 mg. × dose

Compound: COC(=Cc1ccc(OS(=O)(=O)O)cc1)C(=O)OCC1=C(C(=O)O)N2C(=O)[C@](NC(=O)CCC[C@@H](N)C(=O)O)(OC)[C@H]2SC1 [7β-(D-5-amino-5-carboxyvaleramido)-3-(α-methoxy-p-sulfooxycinnamoyloxymethyl)-7-methoxy-3-cephem-4-carboxylic acid]
- bactericidal action / development of resistance [5]: bactericidal
- resistance to inactivation / enzymatic degradation (certain microorganisms): more resistant to enzymatic degradation than cephalosporin C
- toxicity [11]: low order of toxicity in mice
- resistance to cephalosporinases (cephalosporinases): greater resistance to cephalosporinases than cephalothin
- protection against infections, oral [3]: protects against infections due to Proteus vulgaris
- in vivo protection / activity [3]: when administered subcutaneously, it is effective against a variety of gram-negative and gram-positive infections

Compound: CO[C@@]1(NC(=O)CCC[C@@H](N)C(=O)O)C(=O)N2C(C(=O)O)=C(C)CS[C@@H]21 [7β-(D-5-amino-5-carboxyvaleramido)-3-methyl-7-methoxy-3-cephem-4-carboxylic acid]
- Bioactivity (Vibrio percolans MB-1272; 50 ug/ml): Inactive at 50 ug/ml

Compound: CC1(C)S[C@@H]2[C@H](NC(=O)Cc3ccccc3)C(=O)N2[C@H]1C(=O)O [Penicillin G]
- resistance to / degradation by penicillinase (penicillinase): in the presence of penicillinase it is degraded to a form which is ineffective against most pathogens

Compound: CC(=O)OCC1=C(C(=O)O)N2C(=O)[C@@H](NC(=O)CCC[C@@H](N)C(=O)O)[C@H]2SC1 [Cephalosporin C]
- resistance to / degradation by penicillinase (penicillinase): possesses an inherent resistance to penicillinase
- percent inactivation (Escherichia coli 236): > 99%
- percent inactivation (Proteus morganii 356 [4]; [14]): > 99%
- percent inactivation (Proteus morganii 251; [14]): > 99%
- percent inactivation (Proteus mirabilis 241; [14]): 72%
- Percent Inactivation After Incubation With Washed Bacterial Cells ([7]; 3 Hour Incubation, assayed on V. percolans (MB-1272) plates): > 99%
- Percent Inactivation After Incubation With Washed Bacterial Cells ([7]; 3 Hours Incubation, assayed on B. subtilis (MB-964) plates): > 99%
- Percent Inactivation After Incubation With Cell-Free Extract [2, 13]: 96%
- antibacterial activity (background, words) [12]: only moderately active
